Data published in ChEMBL document CHEMBL4014321, “Discovery of Pyrazolo[1,5-a]pyrimidine B-Cell Lymphoma 6 (BCL6) Binders and Optimization to High Affinity Macrocyclic Inhibitors” (J Med Chem, 2017).
≈ marks a conversion by molar mass, not a printed value.

Tests used:
[1] = Inhibition of human CK2 protein
OCI-Ly1 = test: Antiproliferative activity against BCL6 dependent human OCI-LY1 cells after 3 days by CellTiter-Glo assay; assay type: functional; details: OCI-Ly1, 72 h
TMD8 = test: Antiproliferative activity against BCL6 dependent human TMD8 cells after 3 days by CellTiter-Glo assay; assay type: functional; details: TMD8, 72 h
OCI-Ly3 = test: Antiproliferative activity against BCL6 dependent human OCI-LY3 cells after 3 days by CellTiter-Glo assay; assay type: functional; details: OCI-Ly3, 72 h
OCI-Ly10 = test: Antiproliferative activity against BCL6 dependent human OCI-LY10 cells after 3 days by CellTiter-Glo assay; assay type: functional; details: OCI-Ly10, 72 h
SU-DHL-2 = test: Antiproliferative activity against BCL6 dependent human SU-DHL-2 cells after 3 days by CellTiter-Glo assay; assay type: functional; details: SU-DHL-2, 72 h
SUD4 = test: Antiproliferative activity against BCL6 dependent human SUDHL4 cells after 3 days by CellTiter-Glo assay; assay type: functional; details: SU-DHL-4, 72 h
U2932 = test: Antiproliferative activity against BCL6 dependent human U2932 cells after 3 days by CellTiter-Glo assay; assay type: functional; details: U2932, 72 h
KARPAS-422 = test: Antiproliferative activity against BCL6 […] human KARPAS422 cells after 3 days by CellTiter-Glo assay; assay type: functional; details: KARPAS-422, 72 h
OCI-LY19 = test: Antiproliferative activity against BCL6 independent human OCI-LY19 cells after 3 days by CellTiter-Glo assay; assay type: functional; details: OCI-LY19, 72 h
AMO1 = test: Antiproliferative activity against BCL6 dependent human AMO1 cells after 3 days by CellTiter-Glo assay; assay type: functional; details: AMO1, 72 h
[2] = molecular target: T1, B-cell lymphoma 6 protein (Homo sapiens, UniProt P41182, C67R/C84N/C8Q); test: Inhibition of SMRT2 H1426W mutant peptide binding to N-terminal His6-tagged human BCL6 BTB domain C8Q/C67R/C84N mutant expressed in Escherichia coli BL21 (DE3) preincubated for 30 mins followed by SMRT2 H1426W mutant peptide addition measured after 60 mins by time-resolved fluorescence resonance energy transfer assay
[3] = molecular target: T1, B-cell lymphoma 6 protein; test: Binding affinity to N-terminal His6-tagged human BCL6 BTB domain C8Q/C67R/C84N mutant expressed in Escherichia coli BL21 (DE3) by surface plasmon resonance spectrometry
Homo sapiens [4] = organism: Homo sapiens; test: Selectivity ratio of IC50 for human CK2 protein to IC50 for N-terminal His6-tagged human BCL6 BTB domain C8Q/C67R/C84N mutant
[5] = Octanol-buffer partition co-efficient, log D of the compound at pH 7.4 after 30 mins by shake flask method; assay type: physicochemical
Homo sapiens [6] = organism: Homo sapiens; test: Inhibition of human CK2 protein at 1 uM relative to control
[7] = Apparent permeability in human Caco2 cells; assay type: ADME, cell-based; details: Caco-2
[8] = Aqueous solubility of the compound at pH 7.4 after 24 hrs by LC-UV method; assay type: physicochemical
[9] = Binding affinity to GABA receptor (unknown origin) by radioligand displacement assay; design: species or system Homo sapiens
[10] = molecular target: 5-hydroxytryptamine receptor 1B (Homo sapiens, UniProt P28222); test: Agonist activity at 5-HT1B receptor (unknown origin)
Chain of 5-hydroxytryptamine receptor 1B (P28222 whole entry): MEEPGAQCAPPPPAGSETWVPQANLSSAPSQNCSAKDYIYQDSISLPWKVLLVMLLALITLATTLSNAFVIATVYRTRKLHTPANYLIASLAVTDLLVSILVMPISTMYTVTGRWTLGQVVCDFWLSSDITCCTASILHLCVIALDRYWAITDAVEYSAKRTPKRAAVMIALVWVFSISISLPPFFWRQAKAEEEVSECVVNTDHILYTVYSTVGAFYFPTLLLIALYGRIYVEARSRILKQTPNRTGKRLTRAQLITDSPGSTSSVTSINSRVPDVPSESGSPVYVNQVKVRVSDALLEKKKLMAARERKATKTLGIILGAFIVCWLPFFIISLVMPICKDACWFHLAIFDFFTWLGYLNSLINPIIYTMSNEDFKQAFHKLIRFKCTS

Compound	IC50 [1] [µM]	GI50 (OCI-Ly1) [µM]	GI50 (OCI-Ly3) [µM]	GI50 (OCI-Ly10) [µM]	GI50 (SU-DHL-2) [µM]	GI50 (KARPAS-422) [µM]	GI50 (OCI-LY19) [µM]	IC50 [2] [µM]	Kd [3] [µM]	Ratio IC50 (Homo sapiens [4])	logD at 0.5 h [5]	inhibition (Homo sapiens [6]) [%]	Papp [7] [×10⁻⁶ cm/s]	solubility at 24 h [8] [µM]	Ki [9] [µM]	EC50 [10] [µM]	GI50 (TMD8) [µM]	GI50 (SUD4) [µM]	GI50 (U2932) [µM]	GI50 (AMO1) [µM]
N#Cc1cnn2c(NC3CC3)ccnc12	–	–	–	–	–	–	–	> 99	319	–	–	–	–	–	–	–	–	–	–	–
O=C1CCc2cc3cc(c2N1)OCCCCO[C@H]1C[C@@H](CO)N(C1)c1cc(n2ncc(Cl)c2n1)N3	1.4	6.31	3.16	2.51	3.98	5.01	1.58	–	–	–	–	–	–	–	–	–	3.16	10	5.01	3.98
N#Cc1cnn2c3cc(nc12)N1C[C@H](C[C@H]1CO)OC/C=C/COc1cc(cc2c1NC(=O)CC2)N3	–	10	3.98	5.01	3.16	7.94	6.31	0.0029	0.0065	220	2.2	> 60	–	–	–	–	7.94	7.94	6.31	15.8
N#Cc1cnn2c(Nc3ccc4c(c3)CCC(=O)N4)cc(N3CCC[C@@H]3CO)nc12	–	–	–	–	–	–	–	0.59	–	–	–	–	–	–	–	–	–	–	–	–
CCNc1cc(-c2cccnc2)nc2ccnn12	–	–	–	–	–	–	–	–	689	–	–	–	–	–	–	–	–	–	–	–
O=C(O)CCN1C(=O)/C(=C2/C(=O)Nc3ccc(Cl)cc32)SC1=S	0.69	20	20	12.6	12.6	12.6	10	–	–	–	–	–	–	–	–	–	10	10	12.6	20
O=C1CCc2cc3cc(c2N1)OCCCCO[C@H]1C[C@@H](CO)N(C1)c1cc(n2nccc2n1)N3	> 10	12.6	15.8	12.6	10	12.6	12.6	–	–	–	–	–	–	–	–	–	10	20	15.8	12.6
N#Cc1cnn2c3cc(nc12)N1CC[C@@H](C1)OCCCCOc1cc(cc2c1NC(=O)CC2)N3	–	7.94	3.98	7.94	10	7.94	7.94	–	–	–	–	–	–	–	–	–	5.01	10	10	10
N#Cc1cnn2c(Nc3ccc4c(c3)CCC(=O)N4)cc(N3CCC[C@H]3CC(=O)O)nc12	–	–	–	–	–	–	–	0.35	1.1	–	–	–	–	–	–	–	–	–	–	–
O=C(O)C[C@@H]1C[C@H]2CN1c1cc(n3ncc(Cl)c3n1)Nc1cc3c(c(c1)OC/C=C/CO2)N(CC1CC(F)(F)C1)C(=O)CC3	0.16	15.8	20	15.8	20	20	10	–	–	–	–	–	–	–	–	–	15.8	15.8	15.8	31.6
CC(=O)Nc1ccc(-c2cc(NC3CC3)n3ncc(C#N)c3n2)cc1N1CC[C@@H](N(C)C)C1	0.012	–	–	–	–	–	–	–	–	–	–	–	–	–	–	–	–	–	–	–
N#Cc1cnn2c(Nc3ccccc3)cc(N3CCCC3)nc12	–	–	–	–	–	–	–	> 100	–	–	–	–	–	–	–	–	–	–	–	–
N#Cc1cnn2c(Nc3ccc4c(c3)CCC(=O)N4)cc(N3CCC[C@H]3CO)nc12	–	–	–	–	–	–	–	0.37	0.5	–	2.3	–	–	–	–	–	–	–	–	–
N#Cc1cnn2c(NC3CC3)cc(N3CCCC3)nc12	–	–	–	–	–	–	–	> 99	–	–	–	–	–	–	–	–	–	–	–	–
N#Cc1cnn2c3cc(nc12)N1C[C@H](C[C@H]1CO)OCCCCOc1cc(cc2c1NC(=O)CC2)N3	0.4	25.1	12.6	10	12.6	20	15.8	–	–	–	–	–	–	–	–	–	15.8	25.1	15.8	20
N#Cc1cnn2c(Nc3ccc4c(c3)CCC(=O)N4)cc(N3CCCC3)nc12	–	–	–	–	–	–	–	2.9	–	–	–	–	–	–	–	–	–	–	–	–

Continued, in another order:

IC50 [1] [µM]	GI50 (OCI-Ly1) [µM]	GI50 (OCI-Ly3) [µM]	GI50 (OCI-Ly10) [µM]	GI50 (SU-DHL-2) [µM]	GI50 (KARPAS-422) [µM]	GI50 (OCI-LY19) [µM]	IC50 [2] [µM]	Kd [3] [µM]	Ratio IC50 (Homo sapiens [4])	logD at 0.5 h [5]	inhibition (Homo sapiens [6]) [%]	Papp [7] [×10⁻⁶ cm/s]	solubility at 24 h [8] [µM]	Ki [9] [µM]	EC50 [10] [µM]	Compound	GI50 (TMD8) [µM]	GI50 (SUD4) [µM]	GI50 (U2932) [µM]	GI50 (AMO1) [µM]
> 10	6.31	> 31.6	6.31	6.31	25.1	10	–	–	–	–	–	–	–	–	–	COc1cccc(CN2C(=O)CCc3cc4cc(c32)OC/C=C/CO[C@H]2C[C@@H](CO)N(C2)c2cc(n3ncc(Cl)c3n2)N4)c1	20	31.6	15.8	15.8
2.1	7.94	12.6	7.94	7.94	10	6.31	–	–	–	–	–	–	–	–	–	O=C1CCc2cc3cc(c2N1CC1CC(F)(F)C1)OC/C=C/CO[C@H]1C[C@@H](CO)N(C1)c1cc(n2ncc(Cl)c2n1)N3	10	10	6.31	25.1
> 10	10	15.8	10	6.31	> 31.6	10	–	–	–	–	–	–	–	–	–	Cc1ccccc1CN1C(=O)CCc2cc3cc(c21)OC/C=C/CO[C@H]1C[C@@H](CO)N(C1)c1cc(n2ncc(Cl)c2n1)N3	20	6.31	10	25.1
7	6.31	6.31	6.31	3.16	5.01	5.01	–	–	–	–	–	–	–	–	–	CN1C(=O)CCc2cc3cc(c21)OC/C=C/CO[C@H]1C[C@@H](CO)N(C1)c1cc(n2ncc(Cl)c2n1)N3	3.98	6.31	5.01	5.01
2.2	> 31.6	> 31.6	20	20	> 31.6	15.8	–	–	–	–	–	–	–	–	–	O=C1CCc2cc3cc(c2N1CC1CC1)OC/C=C/CO[C@H]1C[C@@H](CO)N(C1)c1cc(n2ncc(Cl)c2n1)N3	25.1	> 31.6	10	> 31.6
1.2	3.16	6.31	3.98	2.51	5.01	5.01	–	–	–	–	–	–	–	–	–	COc1cccc(CN2C(=O)CCc3cc4cc(c32)OC/C=C/CO[C@H]2C[C@@H](CO)N(C2)c2cc(n3ncc(C#N)c3n2)N4)c1	3.98	6.31	3.98	10
7.3	3.98	2	1.58	3.98	5.01	2	–	–	–	–	–	46	31 (≈ 15.4 µg/mL)	–	–	O=C1CCc2cc3cc(c2N1)OC/C=C/CO[C@H]1C[C@@H](CO)N(C1)c1cc(n2ncc(Cl)c2n1)N3	2.51	6.31	2.51	3.16
> 10	10	12.6	10	7.94	12.6	12.6	–	–	–	–	–	–	–	–	–	O=C1CCc2cc3cc(c2N1Cc1ccncc1)OC/C=C/CO[C@H]1C[C@@H](CO)N(C1)c1cc(n2ncc(Cl)c2n1)N3	10	10	10	20
> 10	7.94	15.8	12.6	6.31	> 31.6	10	–	–	–	–	–	–	–	–	–	Cc1ccc(CN2C(=O)CCc3cc4cc(c32)OC/C=C/CO[C@H]2C[C@@H](CO)N(C2)c2cc(n3ncc(Cl)c3n2)N4)cc1	15.8	20	10	20
> 10	12.6	12.6	10	10	25.1	10	–	–	–	–	–	–	–	0.25	0.57	O=C1CCc2cc3cc(c2N1Cc1ccccc1)OC/C=C/CO[C@H]1C[C@@H](CO)N(C1)c1cc(n2ncc(Cl)c2n1)N3	10	15.8	7.94	25.1
5.9	10	10	7.94	10	12.6	7.94	–	–	–	–	–	–	–	–	–	O=C1CCc2cc3cc(c2N1CCCN1CCOCC1)OC/C=C/CO[C@H]1C[C@@H](CO)N(C1)c1cc(n2ncc(Cl)c2n1)N3	10	12.6	10	12.6
